Assays:
[1] = system: mouse models of neuropathic pain (Seltzer's method, sciatic nerve ligation); assay: von Frey test in mouse Seltzer model of neuropathic pain; assay type: in vivo; conditions: oral
Experimental: 7 to 8 male ICR mice of 5 weeks old were used as one experimental group for evaluation. Mouse models of neuropathic pain were prepared according to Seltzer's method (Seltzer et al., Pain, 1990, vol. 43, p. 205; Malmberg et al., Pain, 1998, vol. 76, p. 215). That is, the sciatic nerve at the femoral region of the right hindlimb of each mouse was exposed under anesthesia, and the sciatic nerve was triply ligated tightly with silk suture of 8-0 (NATSUME SEISAKUSHO) under microscope so that only half thickness of the nerve was trapped in the ligature.
Seven days after the above-described sciatic nerve ligation, using 0.5% methylcellulose as a vehicle, mice of each group received administration of vehicle, administration of a suspension of pregabalin (3 mg/kg) alone, administration of a suspension of Compound 3 (0.3 mg/kg) alone, or administration (combined administration) of a mixed suspension of pregabalin and Compound 3 (3 mg/kg and 0.3 mg/kg, respectively).
Evaluation of neuropathic pain (hereinafter “von Frey test”) was carried out as follows. Mouse models of neuropathic pain were conditioned for at least 1 hour in an acryl cage for measurement (NATSUME SEISAKUSHO) placed on a wire net. Thereafter, using a filament (North Coast Medical. Inc.) which exerted a pressure of 0.16 g, the mice were subjected to mechanical tactile stimulus by applying the filament to the plantar surface of both hindpaws 3 times, each for 3 seconds, with an interval of 3 seconds.
Seven days after sciatic nerve ligation, a von Frey test was carried out before administration of the test compound, 1 hour after administration, 2 hours after administration, and 3 hours after administration. Change in the total scores from before to after administration of the test compound (hereinafter “ΔvF test score”) was calculated by subtracting the total score obtained at each time point after administration of the test compound from the total score obtained before administration of the test compound, which was used as an indicator of analgesic effect.
That is, individual ΔvF test scores of the mice in the group treated with pregabalin alone and the mice in the group treated with Compound 3 alone were sorted in ascending order, respectively, and ΔvF test scores of the two groups at the same rank were added, thereby obtaining a theoretical total value.
The symbol # in the figures indicates a significant difference (###p<0.001) from the group treated with vehicle. […] The symbol * in the figures indicates a significant difference (*p<0.05, **p<0.01) from the theoretical total value.
In the same manner as in Example 1, effects of oral administration of 1, 3, 10 and 30 mg/kg pregabalin alone were evaluated 1 hour after administration in mouse models of neuropathic pain.
(§1) The symbol * in the figure indicates a significant difference (*p<0.025) from the group treated with vehicle.

[2] = system: male ddY mice; assay: mouse wheel running test (motor inhibitory effect)
Experimental: 8 male ddY mice of 5 weeks old were used as one experimental group for evaluation. The test compound, grouping of mice, vehicle used and administration method were the same as in Example 1.
Mice were placed in a running wheel apparatus (NATSUME SEISAKUSHO) 0.5 hour after administration of the test compound, and the number of revolutions of the running wheel was counted for a period of 1 hour immediately thereafter to evaluate a motor inhibitory effect.
In the same manner as in Example 2, motor inhibitory effects of oral administration of 30 and 100 mg/kg pregabalin were evaluated.
as §1

Row | SMILES | analgesic effect (ΔvF test score) ([1]; 1 mg/kg pregabalin alone, 1 hour after administration (Comparative Example 1)) | analgesic effect (ΔvF test score) ([1]; 3 mg/kg pregabalin alone, 1 hour after administration (Comparative Example 1)) | analgesic effect (ΔvF test score) ([1]; 3 mg/kg pregabalin alone, 1 hour, 2 hours and 3 hours after administration, male ICR mice) | analgesic effect (ΔvF test score) ([1]; 10 mg/kg pregabalin alone, 1 hour after administration (Comparative Example 1), *p<0.025 vs vehicle) | analgesic effect relative to combined administration of 3 mg/kg pregabalin and 0.3 mg/kg Compound 3 ([1]; 30 mg/kg pregabalin alone, 1 hour after administration) | analgesic effect (ΔvF test score) ([1]; 30 mg/kg pregabalin alone, 1 hour after administration (Comparative Example 1), *p<0.025 vs vehicle) | motor inhibitory effect (number of revolutions of running wheel) ([2]; 3 mg/kg pregabalin alone, oral, 0.5 to 1.5 hours after administration) | motor inhibitory effect (number of revolutions of running wheel) ([2]; 30 mg/kg pregabalin alone, oral (Comparative Example 2), *p<0.025 vs vehicle) | motor inhibitory effect (number of revolutions of running wheel) ([2]; 100 mg/kg pregabalin alone, oral (Comparative Example 2), *p<0.025 vs vehicle) | analgesic effect (ΔvF test score) ([1]; 0.3 mg/kg Compound 3 alone, 1 hour, 2 hours and 3 hours after administration, male ICR mice) | motor inhibitory effect (number of revolutions of running wheel) ([2]; 0.3 mg/kg Compound 3 alone, oral, 0.5 to 1.5 hours after administration)
1 | CC(C)C[C@H](CN)CC(=O)O [Pregabalin, S-(+)-4-amino-3-(2-methylpropyl) butanoic acid] | No analgesic effect was observed | No analgesic effect was observed | an analgesic effect was not observed | a statistically-significant analgesic effect was observed | about the same level | a statistically-significant analgesic effect was observed | No statistically-significant motor inhibitory effect was found | statistically significantly reduced the number of revolutions | statistically significantly reduced the number of revolutions | – | –
2 | COc1ccc(-n2nc(C3(O)CCC(O)CC3)cc2-c2ccc(C)cc2)cc1 (stereo not drawn) [Compound 3, 1-(1-(4-methoxyphenyl)-5-(p-tolyl)-1H-pyrazol-3-yl)cyclohex-an-cis-1,4-diol] | – | – | – | – | – | – | – | – | – | an analgesic effect was not observed | No statistically-significant motor inhibitory effect was found

Reference: patent US9226924B2, “Methods of treating or preventing neuropathic pain” (Toray Industries, Inc., priority 2010, dated 2016)
